This passage reports IC50 results from paper PMC5437278, “Targeting the deubiquitinase STAMBP inhibits NALP7 inflammasome activity” (Nature Communications, 2017).

This assay has as its target T1, STAMBP (purified, recombinant) (Homo sapiens, UniProt O95630).
T1 construct: commercial purified recombinant STAMBP (R&D Systems E-548B)
T1 sequence (O95630 1-424): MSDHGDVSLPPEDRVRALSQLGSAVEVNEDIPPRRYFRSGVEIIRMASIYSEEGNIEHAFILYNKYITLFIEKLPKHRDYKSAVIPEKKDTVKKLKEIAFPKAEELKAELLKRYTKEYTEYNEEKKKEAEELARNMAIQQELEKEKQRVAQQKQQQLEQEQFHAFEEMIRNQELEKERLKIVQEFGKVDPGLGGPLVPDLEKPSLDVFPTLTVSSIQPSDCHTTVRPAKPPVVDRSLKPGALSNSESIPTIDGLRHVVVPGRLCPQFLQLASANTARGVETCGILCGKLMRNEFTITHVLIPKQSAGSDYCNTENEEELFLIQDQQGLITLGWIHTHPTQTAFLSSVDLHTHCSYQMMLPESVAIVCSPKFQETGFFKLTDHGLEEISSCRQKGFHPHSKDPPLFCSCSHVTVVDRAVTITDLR
Kind of assay: in vitro DUB assay, cleavage of K63-linked di-ubiquitin to mono-Ub, immunoblot. The class given is biochemical. Particulars: 200 nM K63-linked di-Ub, 25 nM STAMBP, pH 7.5, 37 °C, 2 h; competitive. In general terms: Immunoblotting shows a protein as a band on a membrane.

For the substance BC-1471, the half-inhibitory concentration (IC50) is 330 nM.

The term IC50 denotes the concentration that inhibits the measured activity by half.
